Test results taken from patent publication US20240287065A1, “COMPOUND AS CDK KINASE INHIBITOR AND USE THEREOF” (TYK MEDICINES (ZHENGZHOU) , INC., priority 2021, published 2024).

Experiments:
CDK2/CycE1 = CDK2/CycE1 (Homo sapiens, UniProt P24941); assay: Enzyme activity test; format: biochemical;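 also: values come from the source column headed CDK2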
Procedure: (§1) • 1. The test compounds and pabocinib were configured into a […] solution of DMSO; • 2. 20 nL of stock solution was transferred to a 384-well plate using Echo550. DMSO was used as a blank control.
(§2) • 1. according to the following table to prepare 1.3X enzyme solution containing enzyme, substrate and cofactor; • 2. 15 μL of 1.3X enzyme solution was added to each well and the mixture was incubated for 30 min at room temperature; • 3. 5 μL of ATP solution was added to initiate the reaction. The final volume of each well was 20 μL; • 4. After incubation for 150 min at room temperature, 75 μL of termination buffer solution was added to terminate the experiment; • 5. The samples were analyzed using EZ reader.
(§3) The % inhibition was calculated using the following equation
(§4) The one treated with DMSO is the positive control (PC)
(§5) The one without enzyme is the negative control (NC)
(§6) % Inhibition=100-100*((CRPC−CRsample)/(CRPC−CRNC))

CDK4/CycD3 = CDK4/CycD3 (Homo sapiens, UniProt P11802); assay: Enzyme activity test; format: biochemical;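 also: values come from the source column headed CDK4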
Procedure: as §1, §2, §3, §4, §5, §6

CDK6/CycD1 = CDK6/CycD1 (Homo sapiens, UniProt Q00534); assay: Enzyme activity test; format: biochemical;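 also: values come from the source column headed CDK6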
Procedure: as §1, §2, §3, §4, §5, §6

HCC1806 cells = assay: Cell proliferation inhibition assay (MTT, 7 days); format: cell-based; conditions: Homo sapiens, HCC1806, 168 h, HCC1086 [sic], 7 days incubation
Procedure: (§7) MCF7, T47D, OVCAR3 and HCC1806 cells were inoculated in 96-well plates at 3000, 3000, 2500, and 2000 cells/well, respectively, and cultured overnight at 37° C., 5% C02 incubator.
(§8) 1. […] Then 2.5 μl of the stock solution was dissolved in 497.5 μl of DMSO-free medium, and then a 3-fold serial gradient dilution was performed with 0.1% DMSO medium for a total of 9 concentrations, and the concentrations of the compounds after dilution were as follows: • 10000 nM, 3333.33 nM, 1111.11 nM, 370.34 nM, 123.45 nM, 41.15 nM, 13.72 nM, 4.57 nM, and 1.52 nM. • b) After fully mixing, 20 μL of compound solutions were added into cell culture plates containing 80 μL of cells respectively, with 4 replicate wells for each concentration. • c) The cells were transferred to an incubator and incubated for 7 days, and exchanged with fresh culture medium containing the same concentration of compounds when incubated to day 4. 2. MTT assay • a) The cell culture plate was taken out and 10 μL of 5 mg/ml MTT was added to the hood. • b) The cell culture plate was put back into the incubator and continued to incubate for 3 hours. • c) The cell culture plate was taken out to remove the culture medium, and 100 μL of isopropanol (0.4 mMHCl, 0.4% NP40) was added to the plate, and the plate was shaken on a shaker at room temperature for 30 minutes and read at 570 nm. 3. Data analysis
(§9) The survival rate (% Cell Survival) was calculated using the following equation:
(§10) % Cell Survival=100%×(OD_Sample−OD_LCave)/(OD_HC−OD_LCave) • OD_HC: 0.1‰ cell readings of DMSO control • OD_Sample: cell readings of compound addition • OD_LC: readings of blank medium • Analyed by Prizm: Dose-response-Inhibition Log(inhibitor) vs response (three parameters for the best fit)
(§11) IC50 (nM) values were calculated by concentration-response curve fitting.

MCF7 cells = assay: Cell proliferation inhibition assay (MTT, 7 days); format: cell-based; conditions: Homo sapiens, 168 h, 7 days incubation
Procedure: as §7, §8, §9, §10, §11

OVCAR3 cells = assay: Cell proliferation inhibition assay (MTT, 7 days); format: cell-based; conditions: Homo sapiens, OVCAR-3, 168 h, 7 days incubation
Procedure: as §7, §8, §9, §10, §11

T47D cells = assay: Cell proliferation inhibition assay (MTT, 7 days); format: cell-based; conditions: Homo sapiens, 168 h, 7 days incubation
Procedure: as §7, §8, §9, §10, §11

Chain of CDK4/CycD3 (P11802 whole entry, species assumed): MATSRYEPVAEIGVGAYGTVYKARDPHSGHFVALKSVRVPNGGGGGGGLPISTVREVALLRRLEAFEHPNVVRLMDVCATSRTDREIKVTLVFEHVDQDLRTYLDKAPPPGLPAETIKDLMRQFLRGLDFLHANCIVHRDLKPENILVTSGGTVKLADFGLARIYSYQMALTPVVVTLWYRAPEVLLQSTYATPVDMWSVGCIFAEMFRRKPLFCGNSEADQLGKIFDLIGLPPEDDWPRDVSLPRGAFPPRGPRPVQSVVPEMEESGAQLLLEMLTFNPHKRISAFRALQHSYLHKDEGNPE
Chain of CDK4/CycD3 (P30281 whole entry partner, species assumed): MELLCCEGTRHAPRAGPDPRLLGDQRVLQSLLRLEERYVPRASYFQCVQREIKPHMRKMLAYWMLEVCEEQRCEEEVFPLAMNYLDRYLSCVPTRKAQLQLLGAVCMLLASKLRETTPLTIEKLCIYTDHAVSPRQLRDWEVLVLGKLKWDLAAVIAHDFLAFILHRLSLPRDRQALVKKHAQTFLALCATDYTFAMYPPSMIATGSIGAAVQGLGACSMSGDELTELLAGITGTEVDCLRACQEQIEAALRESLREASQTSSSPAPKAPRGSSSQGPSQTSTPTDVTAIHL
Chain of CDK6/CycD1 (Q00534 whole entry, species assumed): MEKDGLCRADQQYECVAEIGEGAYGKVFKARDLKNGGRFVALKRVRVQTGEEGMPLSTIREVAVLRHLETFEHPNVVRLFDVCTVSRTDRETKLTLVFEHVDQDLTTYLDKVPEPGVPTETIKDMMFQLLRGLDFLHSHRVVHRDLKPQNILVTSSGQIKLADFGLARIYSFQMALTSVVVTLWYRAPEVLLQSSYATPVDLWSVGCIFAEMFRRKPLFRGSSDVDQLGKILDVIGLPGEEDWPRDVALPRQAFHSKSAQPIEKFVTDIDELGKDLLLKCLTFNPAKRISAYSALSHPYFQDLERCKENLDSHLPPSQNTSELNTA
Chain of CDK6/CycD1 (P24385 whole entry partner, species assumed): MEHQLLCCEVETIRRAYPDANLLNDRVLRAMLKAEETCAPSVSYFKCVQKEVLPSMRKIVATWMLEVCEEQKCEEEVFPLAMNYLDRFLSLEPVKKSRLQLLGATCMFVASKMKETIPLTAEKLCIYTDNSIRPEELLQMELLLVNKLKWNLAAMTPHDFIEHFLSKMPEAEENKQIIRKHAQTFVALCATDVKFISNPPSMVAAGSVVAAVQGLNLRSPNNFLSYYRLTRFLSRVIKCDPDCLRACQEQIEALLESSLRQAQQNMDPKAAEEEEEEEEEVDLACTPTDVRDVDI

Row | SMILES | IC50 (CDK2/CycE1) [nM] | IC50 (CDK4/CycD3) [nM] | IC50 (CDK6/CycD1) [nM] | IC50 (HCC1806 cells) [nM] | IC50 (MCF7 cells) [nM] | IC50 (OVCAR3 cells) [nM] | IC50 (T47D cells) [nM]
1 | C[C@@]1(O)CCC[C@H]1n1c(=O)c(C2COC2)cc2cnc(NC3CCN(S(C)(=O)=O)CC3)nc21 [Example 1] | < 10 | 10 to 100 | 10 to 100 | – | – | – | –
2 | C[C@@]1(O)CCC[C@H]1n1c(=O)c(OC(F)F)cc2cnc(NC3CCN(S(=O)(=O)c4cccc(C(F)(F)F)c4)CC3)nc21 [Example 20] | – | – | – | 200 to 51000 | 200 to 51000 | 50 to 5200 | 50 to 5200
3 | C[C@@]1(O)CCC[C@H]1n1c(=O)c(OC(F)F)cc2cnc(NC3CCN(S(=O)(=O)c4cc(F)c(F)cc4F)CC3)nc21 [Example 21] | – | – | – | 200 to 51000 | 200 to 51000 | 50 to 5200 | 50 to 5200
4 | C[C@@]1(O)CCC[C@H]1n1c(=O)c(OC(F)F)cc2cnc(NC3CCN(S(=O)(=O)CCC#N)CC3)nc21 [Example 33] | < 10 | – | – | 200 to 51000 | 50 to 5200 | 50 to 5200 | 50 to 5200
5 | C[C@@]1(O)CCC[C@H]1n1c(=O)c(OC(F)F)cc2cnc(N[C@@H]3CCOC[C@H]3O)nc21 [Example 45] | 10 to 100 | 10 to 100 | – | – | – | – | –
6 | C[C@@]1(O)CCC[C@H]1n1c(=O)c(OC(F)F)cc2cnc(NC3CCN(S(=O)(=O)C4CC(F)(F)C4)CC3)nc21 [Example 46] | < 10 | < 10 | – | 50 to 5200 | ≤ 50 | ≤ 50 | ≤ 50
7 | C[C@@]1(O)CCC[C@H]1n1c(=O)c(OC(F)F)cc2cnc(NC3CCN(S(=O)(=O)C4CCCC4)CC3)nc21 [Example 48] | < 10 | < 10 | – | 50 to 5200 | 50 to 5200 | ≤ 50 | 50 to 5200
8 | C[C@@]1(O)CCC[C@H]1n1c(=O)c(OC(F)F)cc2cnc(NC3CCN(S(=O)(=O)C4CCCCC4)CC3)nc21 [Example 49] | – | – | – | 200 to 51000 | – | 50 to 5200 | 50 to 5200
9 | C[C@@]1(O)CCC[C@H]1n1c(=O)c(OC(F)F)cc2cnc(NC3CCN(S(=O)(=O)C4CCC(=O)CC4)CC3)nc21 [Example 53] | – | – | – | 200 to 51000 | 200 to 51000 | ≤ 50 | 50 to 5200
10 | C[C@@]1(O)CCC[C@H]1n1c(=O)c(OC(F)F)cc2cnc(NC3CCN(S(=O)(=O)C4CCC(F)(F)CC4)CC3)nc21 [Example 54] | < 10 | 10 to 100 | – | 200 to 51000 | – | ≤ 50 | 50 to 5200
11 | C[C@@]1(O)CCC[C@H]1n1c(=O)c(OC(F)F)cc2cnc(NC3CCN(S(=O)(=O)C4CCC(F)CC4)CC3)nc21 (some centres unmarked) [Example 55] | – | – | – | 50 to 5200 | ≤ 50 | 50 to 5200 | ≤ 50
12 | C[C@@]1(O)CCC[C@H]1n1c(=O)c(OC(F)F)cc2cnc(NC3CCN(S(=O)(=O)C4CCC(O)CC4)CC3)nc21 (some centres unmarked) [Example 56] | – | – | – | 200 to 51000 | 50 to 5200 | 200 to 51000 | 50 to 5200
13 | C[C@@]1(O)CCC[C@H]1n1c(=O)c(OC(F)F)cc2cnc(NC3CCN(C(=O)C(F)(F)F)CC3)nc21 [Example 57] | – | – | – | 200 to 51000 | – | 200 to 51000 | 200 to 51000
14 | C[C@@]1(O)CCC[C@H]1n1c(=O)c(OC(F)F)cc2cnc(NC3CCN(S(=O)(=O)c4ccc(Cl)cc4)CC3)nc21 [Example 58] | – | – | – | 200 to 51000 | 50 to 5200 | 50 to 5200 | 50 to 5200
15 | C[C@@]1(O)CCC[C@H]1n1c(=O)c(OC(F)F)cc2cnc(NC3CCN(S(=O)(=O)c4cccc(Cl)c4)CC3)nc21 [Example 59] | – | – | – | 50 to 5200 | 50 to 5200 | 50 to 5200 | 50 to 5200
16 | CN1CCC(c2ccc(Nc3ncc4cc(OC(F)F)c(=O)n([C@@H]5CCC[C@@]5(C)O)c4n3)cc2)CC1 [Example 61] | 10 to 100 | < 10 | < 10 | – | – | – | –
17 | CN1CCN(c2ccc(Nc3ncc4cc(OC(F)F)c(=O)n([C@@H]5CCC[C@@]5(C)O)c4n3)cc2)CC1 [Example 63] | – | – | – | 50 to 5200 | ≤ 50 | ≤ 50 | 50 to 5200
18 | C[C@@]1(O)CCC[C@H]1n1c(=O)c(OC(F)F)cc2cnc(NC3CCN(S(=O)(=O)N4CCOCC4)CC3)nc21 [Example 66] | < 10 | 10 to 100 | < 10 | 50 to 5200 | – | ≤ 50 | 50 to 5200
19 | CN([C@H]1CC[C@H](Nc2ncc3cc(OC(F)F)c(=O)n([C@@H]4CCC[C@@]4(C)O)c3n2)CC1)S(C)(=O)=O [Example 69] | < 10 | 10 to 100 | 10 to 100 | – | – | – | –

More lines, now with the values ahead:

Row | IC50 (CDK2/CycE1) [nM] | IC50 (CDK4/CycD3) [nM] | IC50 (CDK6/CycD1) [nM] | IC50 (HCC1806 cells) [nM] | IC50 (MCF7 cells) [nM] | IC50 (OVCAR3 cells) [nM] | IC50 (T47D cells) [nM] | SMILES
20 | < 10 | 10 to 100 | < 10 | 50 to 5200 | 50 to 5200 | 50 to 5200 | ≤ 50 | C[C@@]1(O)CCC[C@H]1n1c(=O)c(OC(F)F)cc2cnc(NC3CCN(S(=O)(=O)c4ccc(C(F)(F)F)cc4)CC3)nc21 [Example 5]
21 | – | – | – | 50 to 5200 | 50 to 5200 | 50 to 5200 | 50 to 5200 | CCCS(=O)(=O)N1CCC(Nc2ncc3cc(OC(F)F)c(=O)n([C@@H]4CCC[C@@]4(C)O)c3n2)CC1 [Example 30]
22 | < 10 | < 10 | – | ≤ 50 | ≤ 50 | ≤ 50 | ≤ 50 | [2H]C([2H])([2H])Oc1ccc(S(=O)(=O)N2CCC(Nc3ncc4cc(OC(F)F)c(=O)n([C@@H]5CCC[C@@]5(C)O)c4n3)CC2)cc1 [Example 31]
23 | – | – | – | ≤ 50 | ≤ 50 | ≤ 50 | ≤ 50 | CCOc1ccc(S(=O)(=O)N2CCC(Nc3ncc4cc(OC(F)F)c(=O)n([C@@H]5CCC[C@@]5(C)O)c4n3)CC2)cc1 [Example 34]
24 | < 10 | < 10 | – | ≤ 50 | ≤ 50 | ≤ 50 | ≤ 50 | COc1ccc(S(=O)(=O)N2CCC(Nc3ncc4cc(OC(F)F)c(=O)n([C@@H]5CCC[C@@]5(C)O)c4n3)CC2)cn1 [Example 36]
25 | < 10 | < 10 | – | ≤ 50 | – | ≤ 50 | ≤ 50 | COc1ncccc1S(=O)(=O)N1CCC(Nc2ncc3cc(OC(F)F)c(=O)n([C@@H]4CCC[C@@]4(C)O)c3n2)CC1 [Example 37]
26 | – | – | – | 50 to 5200 | ≤ 50 | – | – | C[C@@]1(O)CCC[C@H]1n1c(=O)c(OC(F)F)cc2cnc(NC3CCN(S(=O)(=O)CC#N)CC3)nc21 [Example 38]
27 | – | – | – | ≤ 50 | ≤ 50 | – | – | CCn1cc(S(=O)(=O)N2CCC(Nc3ncc4cc(OC(F)F)c(=O)n([C@@H]5CCC[C@@]5(C)O)c4n3)CC2)cn1 [Example 39]
28 | < 10 | < 10 | – | 50 to 5200 | – | ≤ 50 | 50 to 5200 | C[C@@]1(O)CCC[C@H]1n1c(=O)c(OC(F)F)cc2cnc(NC3CCN(S(=O)(=O)CCC(F)(F)F)CC3)nc21 [Example 40]
29 | < 10 | < 10 | – | 50 to 5200 | ≤ 50 | ≤ 50 | ≤ 50 | C[C@@]1(O)CCC[C@H]1n1c(=O)c(OC(F)F)cc2cnc(NC3CCN(S(=O)(=O)C4CCC4)CC3)nc21 [Example 42]
30 | < 10 | < 10 | – | 50 to 5200 | ≤ 50 | ≤ 50 | ≤ 50 | CCS(=O)(=O)N1CCC(Nc2ncc3cc(OC(F)F)c(=O)n([C@@H]4CCC[C@@]4(C)O)c3n2)CC1 [Example 44]
31 | – | – | – | ≤ 50 | ≤ 50 | ≤ 50 | ≤ 50 | CN1CCN(c2ccc(Nc3ncc4cc(OC(F)F)c(=O)n([C@@H]5CCC[C@@]5(C)O)c4n3)nc2)CC1 [Example 60]
